Laboratory results: patent EP0530016B1, “Piperidine derivative and pharmaceutical composition containing it” (Ajinomoto Co., Inc., priority 1991, dated 1993)
pIC50: −log10 of the molar value.

Assays:
[1] = test system: spontaneously hypertensive rats; test: Antihypertensive effect after oral administration, tail-cuff systolic blood pressure; type: in vivo; conditions: dose 6 mg/kg, reduction in systolic blood pressure from basal values, male spontaneously hypertensive rats; for dSBP (mmHg) 2hr: 2hr after administration; for dSBP (mmHg) 6hr: 6hr after administration
Method: Four male spontaneously hypertensive rats (body weight 400-440g) and in which hypertension was confirmed were used. These were obtained from Charles River Japan (Kanagawa, Japan and were maintained in a pathogen free state until used.
A 5% arabic gum aqueous suspension of each sample was administered orally in a dose of 1ml per kg body weight. Systolic blood pressure after administration was measured by an indirect (tail-cuff) method. Antihypertensive effect was shown as a reduction in blood pressure (mmHg) from the basal values.

[2] = test system: spontaneously hypertensive rats; test: Antihypertensive effect after intravenous bolus injection, tail-cuff systolic blood pressure; type: in vivo; conditions: dose 10 mg/kg, reduction in systolic blood pressure from basal values, male spontaneously hypertensive rats
Method: Two male spontaneously hypertensive rats (body weight 400-440g) and in which hypertension was confirmed were used as test animals. These were obtained from Charles River Japan (Kanagawa, Japan) and were maintained in a pathogen free state until used.
An aqueous solution of the derivative prepared in Example 1 above in physiological saline containing 2.5% Nicolle TM and 2.5% ethanol was intravenously administered by bolus injection in a does of 1ml per 1 kg body weight. Systolic blood pressure (SBP) after administration was measured by an indirect (tail-cuff) method. The antihypertensive effect was shown as a reduction in blood pressure (mmHg) from the basal values.

[3] = test system: platelet aggregation induced by a combination of ADP and serotonin; test: Inhibition of the increased platelet aggregation caused by serotonin in platelet rich plasma; type: cell-based; conditions: Oryctolagus cuniculus; rabbit platelet rich plasma; ADP (1.5»M) and serotonin (5»M); 50% inhibition of the increased platelet aggregation caused by serotonin
Method: Blood was obtained from rabbit and was treated with 3.8% sodium citrate. Platelet rich plasma (PRP) was prepared by centrifugation at 1200 rpm for 10 min at room temperature. The platelet aggregation induced by adenosine diphosphate (ADP) (1.5»M) and by a combination of ADP (1.5»M) and serotonin (5»M) was measured. Then the concentration of piperidine derivative required to produce 50% inhibition of the increased platelet aggregation caused by serotonin compared with the control was calculated as IC50.

| Compound | dSBP (mmHg) 2hr [1] [mmHg] | dSBP (mmHg) 6hr [1] [mmHg] | dSBP (mmHg) 0.5hr ([2]; 0.5hr after administration) [mmHg] | dSBP (mmHg) 4hr ([2]; 4hr after administration) [mmHg] | pIC50 [3] |
| --- | --- | --- | --- | --- | --- |
| NS(=O)(=O)c1ccc(C=CCN2CCC(=C3c4ccccc4C=Cc4ccccc43)CC2)cc1 [Example 1, 1-(4-Aminosulfonylcinnamyl)-4-(5H-dibenzo[a,d]cyclohepten-5-ylidene)piperidine] | -37 | -48 | -83 | -95 | 6.70 |
| NS(=O)(=O)c1ccc(C=CCN2CCC(=C3c4ccccc4CSc4ccccc43)CC2)cc1 [Example 2, 11-[1-(4-Aminosulfonylcinnamyl)-4-piperidinylidene]-6,11-dihydrodibenzo[b,e]thiepin] | -31 | -43 |  |  | 6.60 |
